Source: US7858621B2 (Amorepacific Corporation, priority 2006, dated 2010)
Read-outs that look alike come from different tables or passages of the source.

Tests used:
[1] = Metabolic stability test in human intestinal microsomes; assay type: in vitro ADME; details: 5 μg/mL, 1 mg/mL protein, 2 hr reaction time
Description: (§1) 1) Metabolic Stability Test
(§2) Diluted sample (final 5 μg/mL in 0.1 M potassium phosphate buffer, pH 7.4) was pre-incubated with cofactors (glucose-6-phosphate 3.3 mM, NADPH 1.3 mM, MgCl2 0.16 mM, glucose-6-phosphate dehydrogenase 0.4 U/mL final) and enzyme reaction was initiated with the addition of human intestinal (1 mg/mL protein) or rat liver microsomes (0.5 mg/mL protein). Reaction was terminated with 2× volume of cold acetonitrile after 1 min (initial point) or 30 min (reacted sample) incubation. In case of human intestinal microsomes, 2 hr reaction time was employed. Reaction mixture was undergone extraction in shaking bath over 20 min, after which resultant supernatant was separated by centrifugation. Area of parent compound peak was analyzed in the supernatant using HPLC-UV method and the extent of metabolism was shown as the decreased compound peak area (%) from initial point.

[2] = Metabolic stability test in rat liver microsomes; assay type: in vitro ADME; details: 5 μg/mL, 0.5 mg/mL protein, 30 min incubation
Description: as §1, §2

[3] = target: T1, vanilloid receptor (Rattus norvegicus, UniProt O35433); assay: 45Ca influx test in cultured neonatal rat DRG neurons, inhibition of capsaicin response; assay type: cell-based
T1 construct: DRG nerve cells from the primary culture of 2 days were equilibrated; endogenous in cells; host or cells: primary culture of dorsal root ganglion neurons from neonatal SD rats
How it was run: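 Neonatal SD rat DRG neurons, cultured 2 days with NGF (200 ng/ml) and Ara-C, were washed in HEPES (10 mM, pH 7.4)-buffered Ca/Mg-free HBSS. Test compound was added with capsaicin (final 0.5 μM) and 45Ca (10 μCi/ml) for 10 min at room temperature; 45Ca uptake counted by scintillation after SDS elution.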

[4] = PK study in rats, single oral administration; assay type: in vivo; design: AUC: concentration or dose not given beside the values; details: rat, plasma
Description: Pharmacokinetics of compounds in rats were analyzed using the following experiment. Rats were fasted overnight prior to administration and until approximately 4 hours after administration. Rats were given a single oral administration of compound at same dose. Administration volume was 10 ml/kg. Blood samples were collected from the retro-orbital sinus at various times over the following 7 hrs. Immediately after each collection, plasmas were separated from blood cells by centrifugation and stored at −20° C. until the analysis was performed. The plasma samples were analyzed using a reverse phase high-performance chromatography (HPLC) method.

[5] = neonatal rat DRG neurons, capsaicin 0.5 μM, 45Ca influx, read-out: Antagonist Calcium Uptake Test (IC50)
[6] = Table 3, unit inferred, read-out: IC50

T1 sequence (O35433 whole entry): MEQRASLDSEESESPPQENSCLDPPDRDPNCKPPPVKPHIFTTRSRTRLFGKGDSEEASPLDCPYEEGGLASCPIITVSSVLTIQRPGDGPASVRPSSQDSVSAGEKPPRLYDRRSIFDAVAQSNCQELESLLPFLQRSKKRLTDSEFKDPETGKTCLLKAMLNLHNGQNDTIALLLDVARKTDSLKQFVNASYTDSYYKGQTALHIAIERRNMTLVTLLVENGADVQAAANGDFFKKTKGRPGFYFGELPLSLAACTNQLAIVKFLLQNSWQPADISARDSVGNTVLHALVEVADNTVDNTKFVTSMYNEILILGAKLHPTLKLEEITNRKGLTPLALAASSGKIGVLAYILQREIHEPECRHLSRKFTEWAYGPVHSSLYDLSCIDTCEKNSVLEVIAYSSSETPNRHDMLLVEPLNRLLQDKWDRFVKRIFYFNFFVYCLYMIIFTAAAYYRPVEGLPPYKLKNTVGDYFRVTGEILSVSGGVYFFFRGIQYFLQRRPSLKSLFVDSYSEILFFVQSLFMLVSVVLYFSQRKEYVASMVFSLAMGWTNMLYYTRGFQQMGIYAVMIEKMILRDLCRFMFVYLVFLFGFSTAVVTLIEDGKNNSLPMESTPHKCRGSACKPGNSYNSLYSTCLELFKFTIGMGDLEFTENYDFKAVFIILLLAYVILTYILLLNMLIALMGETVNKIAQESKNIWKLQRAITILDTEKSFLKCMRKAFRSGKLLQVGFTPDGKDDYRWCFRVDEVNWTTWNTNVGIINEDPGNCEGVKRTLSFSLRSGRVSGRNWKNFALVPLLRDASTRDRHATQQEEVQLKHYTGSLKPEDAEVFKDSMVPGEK

Compound	Stability HIM (% metabolized in human intestinal microsomes) [1] [%]	Stability RLM (% metabolized in rat liver microsomes) [2] [%]	IC50 [3, 5] [µM]	Cmax [4] [ng/mL]	other results
C=Cc1cc(CNC(=O)/C=C/c2ccc(C(F)(F)F)nc2N2CCOCC2)cc(F)c1NS(C)(=O)=O [Example 281, N-(3-Ethenyl-5-fluoro-4-methanesulfonylamino-benzyl)-3-(2-morpholin-1-yl-6-trifluoromethyl-pyridin-3-yl)-acrylamide]	0	0.5	0.22	215	AUC [4]: 654 ng·h/mL; Tmax [4]: 2 h; half-life [4]: 1.26 h
C#Cc1cc(CNC(=O)/C=C/c2ccc(C(F)(F)F)nc2)cc(F)c1NS(C)(=O)=O [Example 57, N-(3-Ethynyl-5-fluoro-4-methanesulfonylamino-benzyl)-3-(6-trifluoromethyl-pyridin-3-yl)-acrylamide]			> 10	2200	IC50 [3, 6]: > 10 µM; AUC [4]: 56500 ng·h/mL; Tmax [4]: 0.833 h; half-life [4]: 3.95 h
COCCNc1nc(C(F)(F)F)ccc1/C=C/C(=O)NCc1ccc(NS(C)(=O)=O)c(F)c1 [Example 45, N-(3-Fluoro-4-methanesulfonylamino-benzyl)-3-[2-(2-methoxy-ethylamino)-6-trifluoromethyl-pyridin-3-yl]-acrylamide]	8.0	10	0.51		
C#Cc1cc(CNC(=O)/C=C/c2ccc(C(C)(C)C)cc2N2CCOCC2)cc(F)c1NS(C)(=O)=O [drawing 334, reference compound]	54.0	12.8			IC50 ([3]; Table 2, unit inferred, read-out: IC50): 0.86 µM
C=Cc1cc(CNC(=O)/C=C/c2ccc(C(C)(C)C)cc2)cc(F)c1NS(C)(=O)=O [Examples 16]				< 100	IC50 [3, 6]: 0.047 µM
CCCc1nc(C(F)(F)F)ccc1/C=C/C(=O)NCc1ccc(NS(C)(=O)=O)c(Cl)c1 [Example 253, N-(3-Chloro-4-methanesulfonylamino-benzyl)-3-(2-propyl-6-trifluoromethyl)-pyridin-3-yl-acrylamide]	3.2	0	0.5		
C=Cc1cc(CNC(=O)/C=C/c2ccc(C(C)(C)C)cc2N2CCOCC2)cc(F)c1NS(C)(=O)=O [Examples 22]				< 100	
C#Cc1cc(CNC(=O)/C=C/c2ccc(C(F)(F)F)nc2OCCOC)cc(F)c1NS(C)(=O)=O [Example 75, N-(3-Ethynyl-5-fluoro-4-methanesulfonylamino-benzyl)-3-[2-(2-methoxy-ethoxy)-6-trifluoromethyl-pyridin-3-yl]-acrylamide]	17.0	17.0	0.37		
C#Cc1cc(CNC(=O)/C=C/c2ccc(C(F)(F)F)nc2N2CCOCC2)cc(F)c1NS(C)(=O)=O [Example 12, N-(3-Ethynyl-5-fluoro-4-methanesulfonylamino-benzyl)-3-(2-morpholin-4-yl-6-trifluoromethyl-pyridin-3-yl)-acrylamide]	12.0	11.7	0.26	723	AUC [4]: 3240 ng·h/mL; Tmax [4]: 2.38 h; half-life [4]: 1.7 h
C#Cc1cc(CNC(=O)/C=C/c2ccc(C(C)(C)C)cc2N2CCOCC2)cc(F)c1NS(C)(=O)=O [drawing 350, reference compound]				334	IC50 [3, 6]: 0.86 µM; AUC [4]: 706 ng·h/mL; Tmax [4]: 2 h; half-life [4]: 0.932 h
C=Cc1cc(CNC(=O)/C=C/c2ccc(C(C)(C)C)cc2NC(C)C)cc(F)c1NS(C)(=O)=O [Examples 34]				< 100	
C=Cc1cc(CNC(=O)/C=C/c2ccc(C(F)(F)F)nc2Oc2ccccc2)cc(F)c1NS(C)(=O)=O [Example 133, N-(3-Fluoro-4-methanesulfonylamino-5-vinyl-benzyl)-3-(2-phenoxy-6-trifluoromethyl-pyridin-3-yl)-acrylamide]			0.28		
C#Cc1cc(CNC(=O)/C=C/c2ccc(C(F)(F)F)nc2Nc2ccccc2)cc(F)c1NS(C)(=O)=O [Example 113, N-(3-Ethynyl-5-fluoro-4-methanesulfonylamino-benzyl)-3-(2-phenylamino-6-trifluoromethyl-pyridin-3-yl)-acrylamide]			0.27		
CCCNc1nc(C(F)(F)F)ccc1/C=C/C(=O)NCc1cc(F)c(NS(C)(=O)=O)cc1F [Example 248, N-(2,5-Difluoro-4-methanesulfonylamino-benzyl)-3-(2-propylamino-6-trifluoromethyl-pyridin-3-yl)-acrylamide]			0.12		
2-(2-piperid-1-yl-6-chloro-pyridinyl-3-yloxy)-N-(3-fluoro-4-methanesulfonylamino-benzyl)-acetamide [Example 13]			3.5		

Continued by falling IC50 [3, 5], values first:

Stability HIM (% metabolized in human intestinal microsomes) [1] [%]	Stability RLM (% metabolized in rat liver microsomes) [2] [%]	IC50 [3, 5] [µM]	Cmax [4] [ng/mL]	Compound	other results
17.1	17.1	0.096		C#Cc1cc(CNC(=O)/C=C/c2ccc(C(F)(F)F)nc2OC)cc(F)c1NS(C)(=O)=O [Example 42, N-(3-Ethynyl-5-fluoro-4-methanesulfonylamino-benzyl)-3-(2-methoxy-6-trifluoromethyl-pyridin-3-yl)-acrylamide]	
14.0	15.3	0.089		C#Cc1cc(CNC(=O)/C=C/c2ccc(C(F)(F)F)nc2NCCOC)cc(F)c1NS(C)(=O)=O [Example 65, N-(3-Ethynyl-5-fluoro-4-methanesulfonylamino-benzyl)-3-[2-(2-methoxy-ethylamino)-6-trifluoromethyl-pyridin-3-yl]-acrylamide]	
1.6	2.7	0.087		CCCCNc1nc(C(F)(F)F)ccc1/C=C/C(=O)NCc1cc(C)c(NS(C)(=O)=O)c(F)c1 [Example 188, N-(3-Fluoro-4-methanesulfonylamino-5-methyl-benzyl)-3-(2-butylamino-6-trifluoromethyl-pyridin-3-yl)-acrylamide]	
0	3.4	0.069	2530	C#Cc1cc(CNC(=O)/C=C/c2ccc(C(F)(F)F)nc2NC(C)C)cc(F)c1NS(C)(=O)=O [Example 100, N-(3-Ethynyl-5-fluoro-4-methanesulfonylamino-benzyl)-3-(2-isopropylamino-6-trifluoromethyl-pyridin-3-yl)-acrylamide]	AUC [4]: 17400 ng·h/mL; Tmax [4]: 3 h; half-life [4]: 3.21 h
		0.052		CCCNc1nc(C(F)(F)F)ccc1/C=C/C(=O)NCc1ccc(NS(C)(=O)=O)c(C)c1 [Example 225, N-(4-Methanesulfonylamino-3-methyl-benzyl)-3-(2-propylamino-6-trifluoromethyl-pyridin-3-yl)-acrylamide]	
0	0	0.049		CCCNc1nc(C(F)(F)F)ccc1/C=C/C(=O)NCc1cc(F)c(NS(C)(=O)=O)c(F)c1 [Example 222, N-(3,5-Difluoro-4-methanesulfonylamino-benzyl)-3-(2-propylamino-6-trifluoromethyl-pyridin-3-yl)-acrylamide]	
		0.045		CCCCNc1nc(C(F)(F)F)ccc1/C=C/C(=O)N[C@H](C)c1cc(F)c(NS(C)(=O)=O)c(F)c1 [Example 238, (R)-3-(2-Butylamino-6-trifluoromethyl-pyridin-3-yl)-N-[(1R)-(3,5-difluoro-4-methanesulfonylamino-phenyl)-ethyl]-acrylamide]	
		0.04	5500	C#Cc1cc(CNC(=O)/C=C/c2ccc(C(F)(F)F)nc2CCC)cc(F)c1NS(C)(=O)=O [Example 206, N-(3-Ethynyl-5-fluoro-4-methanesulfonylamino-benzyl)-3-(2-propyl-6-trifluoromethyl-pyridin-3-yl)-acrylamide]	AUC [4]: 25900 ng·h/mL; Tmax [4]: 3.5 h; half-life [4]: 1.42 h
